Laboratory results from patent US20250213636A1, “A […] ANAESTHETIC FORMULATION AND A METHOD OF PREPARATION” (priority 2022, published 2025).
Marks after values point to notes of the source that are not given here.

What was measured:
[1] = test system: rats (tail, noxious heat stimulus); experiment: Tail-flick latency (TFL) test of local anaesthetic effect; format: in vivo
Description: Local anaesthetic effects of LA-containing formulations were evaluated by tail-flick latency (TFL) test using a tail-flick measuring device (Ugo Basile, Varese, italy) (Puglia et al., 2011; Ouchi et al., 2013; Caffarel-Salvador et al., 2015). A noxious heat stimulus was applied via a focused, radiant heat light source to the dorsal surface of the tail. Tail-flick test started 5 min after the local application of different preparations, and the test was conducted every 10 min for 120 min. TFL was converted to represent the maximum possible effect (MPE) according to the following equation: […]
The baseline TFL was calculated as the mean of three different measurements taken at 10-min intervals. Baseline latencies were typically ranged from 2.5 to 3.0 s. A maximum cut-off latency of 10s was set to avoid tissue damage in analgesic animals. Results are expressed as mean±standard of eight rats per group.

Wistar rats = experiment: In vivo analgesia duration test using electrical stimulation (vocal response); set-up: species or system Wistar albino rats
Description: In vivo analgesia duration test was conducted using electrical stimulation testing, which was used as a means of determining analgesia in animals and humans (Grant et al., 2000). Testing for analgesia was done by a vocal response to electrical stimulation (beginning at 1 mA and increasing to a maximum of 8 mA) at the skin directly overlying the abdomen at the site of injection using a current generator. The abdominal hair of the experimental rats was shaved off, and they were screened prior to injection to determine their vocalization threshold, the current required to produce a vocalization response.
Animals will be treated in the following manner.
Polyherbal anaesthetic formulation, standard drug and 0.9% normal saline samples were injected subcutaneously into the abdomen of the experimental rats, followed by determination of analgesia at the fixed time intervals (5, 10, 20, 30, 40, 50, 60, and 70 min).

For `CCN(CC)CC(=O)Nc1c(C)cccc1C` [lignocaine 2% solution, lignocaine], the “Duration of anaesthetic effect/activity after application” value [1] was “up to 30 min”, the “Median duration of analgesia” value (Wistar rats; 0.05 mL subcutaneous injection into abdomen, rats) was 35 min and the “Percentage (%) of animals with analgesia” value (Wistar rats; 5 minutes after 0.05 mL s.c.) was 100.00** %. For the same molecule, the “Percentage (%) of animals with analgesia” value (Wistar rats; 10 minutes after 0.05 mL s.c.) was 100.00** %, the “Percentage (%) of animals with analgesia” value (Wistar rats; 20 minutes after 0.05 mL s.c.) was 100.00** % and the “Percentage (%) of animals with analgesia” value (Wistar rats; 30 minutes after 0.05 mL s.c.) was 66.67** %. The “Percentage (%) of animals with analgesia” value (Wistar rats; 40 minutes after 0.05 mL s.c.) was 33.33** %, the “Percentage (%) of animals with analgesia” value (Wistar rats; 50 minutes after 0.05 mL s.c.) was 33.33** % and the “Percentage (%) of animals with analgesia” value (Wistar rats; 60 minutes after 0.05 mL s.c.) was 16.67** %. The “Percentage (%) of animals with analgesia” value (Wistar rats; 70 minutes after 0.05 mL s.c.) was 16.67** %.
